Assay results reported in patent US8034314B2, “Photoreactive compound specifically binding to calcium binding proteins” (priority 2004, dated 2011).

Tests used:
[1] = biological target: T1, ryanodine receptor (RyR) / Ca2+-release channel (Oryctolagus cuniculus, UniProt P11716); experiment: [3H]ryanodine binding to SR membranes; design: species or system rabbit; settings: no UV; mean ± SEM of 3 to 5 experiments
T1 construct: from tissue; host or cells: rabbit fast twitch skeletal muscle SR membranes
Description: (§1) Sarcoplasmic reticulum (SR) membranes were prepared from rabbit fast twitch skeletal muscle as described by Saito [Saito et al.: J. Cell Biol. 99 (1984) 875-85]. Mitochondria were isolated from rat liver as described by us previously [Gincel D. et al.: Biochem J. 358 (2001) 147-55]. VDAC was purified by a method developed in our laboratory, using columns of hydroxyapatite and reactive red agarose [Gincel D. et al.: J. Bioenerget. Biomembr. 32 (2000) 571-83].
For the determination of [^3H]ryanodine binding, SR membranes were incubated for 20-60 min at 37° C. in a standard binding solution containing 1M NaCl, 20 mM MOPS (pH 7.4), 50 μM free Ca^2+ and 20 nM [^3H]ryanodine. Unbound ryanodine was separated from protein-bound ryanodine by vacuum filtration of the sample through nitrocellulose filters (0.45 μm), followed by two washes with 4 ml ice-cold buffer containing 0.2 M NaCl, 10 mM MOPS (pH 7.4) and 50 μM CaCl2. The retained radioactivity in the dried filters was determined by liquid scintillation counting. Specific binding of [^3H]ryanodine was defined as the difference between the binding in the presence of 20 nM [^3H]ryanodine and in the presence of 20 μM unlabeled ryanodine.
(§2) The hexavalent RuR and the trivalent Ru360 have been employed in various studies as inhibitors of Ca^2+-dependent reactions. As shown here, even with no photoactivation, AzRu, in contrast to RuR and Ru360, was effective in inhibiting the SR Ca^2+-pump (Table 3). […] This may open the way to inhibit other Ca^2+-dependent activities that are not sensitive to RuR, such as the plasma membrane Ca^2+-ATPase. […] RuR was employed to improve mitochondrial production in ischemic reperfused pig myocardium, was employed in the nervous system to follow neuronal death progress and can act as an anti-oxidant in certain conditions. Considering the potent activity of AzRu in RuR-insensitive reactions (see Table 3), its applications in various biological studies should be explored. Ca^2+ accumulation in SR and mitochondria was assayed as described above in the absence and presence of different concentrations of RuR (0.05-100 μM), Ru360 (0.01-100 μM) or AzRu (0.1-100 μM). The concentration required for 50% inhibition (IC50) was derived from the plot of Ca^2+ accumulation activity or ryanodine binding as a function of the reagent concentration. The results are the mean±SEM of 3 to 5 experiments (Table 3).

[2] = tested on: mitochondrial uniporter (Ca2+ uptake in mitochondria); experiment: Ca2+ uptake/accumulation in isolated mitochondria; format: biochemical, rat; settings: no UV; mean ± SEM of 3 to 5 experiments
Description: as §1
Ca^2+-accumulation in freshly prepared mitochondria (0.5 mg/ml) was assayed for 1 to 20 minutes at 30° C. in the presence of 225 mM mannitol, 75 mM sucrose, 120 μM CaCl2 (containing 3×10^4 cpm/nmol ^45Ca^2+), 5 mM HEPES/KOH pH 7.0, and 5 mM succinate with 0.1 mM Pi, or 4 mM MgCl2 with 3 mM ATP. The Ca^2+-uptake was terminated by rapid Millipore filtration, followed by a wash with 5 ml of 0.15 M KCl. The Ca^2+-accumulation in SR was determined as described previously [Shoshan-Barmatz V. & Shaineberg A.: Biochim. Biophys. Acta 1065 (1991) 82-8]. Electron transport from succinate to cytochrome c was described in above cited article [Gincel D. et al.: J. Bioenerget. Biomembr. 32 (2000) 571-83].
The effect of AzRu on mitochondrial process of electron transport from the donor succinate to the acceptor cytochrome c was characterized as described above. Although said electron transfer involves several dozens electron transfer carriers, this reaction was not affected by azido-ruthenium of this invention.
as §2

T1 sequence (P11716 whole entry): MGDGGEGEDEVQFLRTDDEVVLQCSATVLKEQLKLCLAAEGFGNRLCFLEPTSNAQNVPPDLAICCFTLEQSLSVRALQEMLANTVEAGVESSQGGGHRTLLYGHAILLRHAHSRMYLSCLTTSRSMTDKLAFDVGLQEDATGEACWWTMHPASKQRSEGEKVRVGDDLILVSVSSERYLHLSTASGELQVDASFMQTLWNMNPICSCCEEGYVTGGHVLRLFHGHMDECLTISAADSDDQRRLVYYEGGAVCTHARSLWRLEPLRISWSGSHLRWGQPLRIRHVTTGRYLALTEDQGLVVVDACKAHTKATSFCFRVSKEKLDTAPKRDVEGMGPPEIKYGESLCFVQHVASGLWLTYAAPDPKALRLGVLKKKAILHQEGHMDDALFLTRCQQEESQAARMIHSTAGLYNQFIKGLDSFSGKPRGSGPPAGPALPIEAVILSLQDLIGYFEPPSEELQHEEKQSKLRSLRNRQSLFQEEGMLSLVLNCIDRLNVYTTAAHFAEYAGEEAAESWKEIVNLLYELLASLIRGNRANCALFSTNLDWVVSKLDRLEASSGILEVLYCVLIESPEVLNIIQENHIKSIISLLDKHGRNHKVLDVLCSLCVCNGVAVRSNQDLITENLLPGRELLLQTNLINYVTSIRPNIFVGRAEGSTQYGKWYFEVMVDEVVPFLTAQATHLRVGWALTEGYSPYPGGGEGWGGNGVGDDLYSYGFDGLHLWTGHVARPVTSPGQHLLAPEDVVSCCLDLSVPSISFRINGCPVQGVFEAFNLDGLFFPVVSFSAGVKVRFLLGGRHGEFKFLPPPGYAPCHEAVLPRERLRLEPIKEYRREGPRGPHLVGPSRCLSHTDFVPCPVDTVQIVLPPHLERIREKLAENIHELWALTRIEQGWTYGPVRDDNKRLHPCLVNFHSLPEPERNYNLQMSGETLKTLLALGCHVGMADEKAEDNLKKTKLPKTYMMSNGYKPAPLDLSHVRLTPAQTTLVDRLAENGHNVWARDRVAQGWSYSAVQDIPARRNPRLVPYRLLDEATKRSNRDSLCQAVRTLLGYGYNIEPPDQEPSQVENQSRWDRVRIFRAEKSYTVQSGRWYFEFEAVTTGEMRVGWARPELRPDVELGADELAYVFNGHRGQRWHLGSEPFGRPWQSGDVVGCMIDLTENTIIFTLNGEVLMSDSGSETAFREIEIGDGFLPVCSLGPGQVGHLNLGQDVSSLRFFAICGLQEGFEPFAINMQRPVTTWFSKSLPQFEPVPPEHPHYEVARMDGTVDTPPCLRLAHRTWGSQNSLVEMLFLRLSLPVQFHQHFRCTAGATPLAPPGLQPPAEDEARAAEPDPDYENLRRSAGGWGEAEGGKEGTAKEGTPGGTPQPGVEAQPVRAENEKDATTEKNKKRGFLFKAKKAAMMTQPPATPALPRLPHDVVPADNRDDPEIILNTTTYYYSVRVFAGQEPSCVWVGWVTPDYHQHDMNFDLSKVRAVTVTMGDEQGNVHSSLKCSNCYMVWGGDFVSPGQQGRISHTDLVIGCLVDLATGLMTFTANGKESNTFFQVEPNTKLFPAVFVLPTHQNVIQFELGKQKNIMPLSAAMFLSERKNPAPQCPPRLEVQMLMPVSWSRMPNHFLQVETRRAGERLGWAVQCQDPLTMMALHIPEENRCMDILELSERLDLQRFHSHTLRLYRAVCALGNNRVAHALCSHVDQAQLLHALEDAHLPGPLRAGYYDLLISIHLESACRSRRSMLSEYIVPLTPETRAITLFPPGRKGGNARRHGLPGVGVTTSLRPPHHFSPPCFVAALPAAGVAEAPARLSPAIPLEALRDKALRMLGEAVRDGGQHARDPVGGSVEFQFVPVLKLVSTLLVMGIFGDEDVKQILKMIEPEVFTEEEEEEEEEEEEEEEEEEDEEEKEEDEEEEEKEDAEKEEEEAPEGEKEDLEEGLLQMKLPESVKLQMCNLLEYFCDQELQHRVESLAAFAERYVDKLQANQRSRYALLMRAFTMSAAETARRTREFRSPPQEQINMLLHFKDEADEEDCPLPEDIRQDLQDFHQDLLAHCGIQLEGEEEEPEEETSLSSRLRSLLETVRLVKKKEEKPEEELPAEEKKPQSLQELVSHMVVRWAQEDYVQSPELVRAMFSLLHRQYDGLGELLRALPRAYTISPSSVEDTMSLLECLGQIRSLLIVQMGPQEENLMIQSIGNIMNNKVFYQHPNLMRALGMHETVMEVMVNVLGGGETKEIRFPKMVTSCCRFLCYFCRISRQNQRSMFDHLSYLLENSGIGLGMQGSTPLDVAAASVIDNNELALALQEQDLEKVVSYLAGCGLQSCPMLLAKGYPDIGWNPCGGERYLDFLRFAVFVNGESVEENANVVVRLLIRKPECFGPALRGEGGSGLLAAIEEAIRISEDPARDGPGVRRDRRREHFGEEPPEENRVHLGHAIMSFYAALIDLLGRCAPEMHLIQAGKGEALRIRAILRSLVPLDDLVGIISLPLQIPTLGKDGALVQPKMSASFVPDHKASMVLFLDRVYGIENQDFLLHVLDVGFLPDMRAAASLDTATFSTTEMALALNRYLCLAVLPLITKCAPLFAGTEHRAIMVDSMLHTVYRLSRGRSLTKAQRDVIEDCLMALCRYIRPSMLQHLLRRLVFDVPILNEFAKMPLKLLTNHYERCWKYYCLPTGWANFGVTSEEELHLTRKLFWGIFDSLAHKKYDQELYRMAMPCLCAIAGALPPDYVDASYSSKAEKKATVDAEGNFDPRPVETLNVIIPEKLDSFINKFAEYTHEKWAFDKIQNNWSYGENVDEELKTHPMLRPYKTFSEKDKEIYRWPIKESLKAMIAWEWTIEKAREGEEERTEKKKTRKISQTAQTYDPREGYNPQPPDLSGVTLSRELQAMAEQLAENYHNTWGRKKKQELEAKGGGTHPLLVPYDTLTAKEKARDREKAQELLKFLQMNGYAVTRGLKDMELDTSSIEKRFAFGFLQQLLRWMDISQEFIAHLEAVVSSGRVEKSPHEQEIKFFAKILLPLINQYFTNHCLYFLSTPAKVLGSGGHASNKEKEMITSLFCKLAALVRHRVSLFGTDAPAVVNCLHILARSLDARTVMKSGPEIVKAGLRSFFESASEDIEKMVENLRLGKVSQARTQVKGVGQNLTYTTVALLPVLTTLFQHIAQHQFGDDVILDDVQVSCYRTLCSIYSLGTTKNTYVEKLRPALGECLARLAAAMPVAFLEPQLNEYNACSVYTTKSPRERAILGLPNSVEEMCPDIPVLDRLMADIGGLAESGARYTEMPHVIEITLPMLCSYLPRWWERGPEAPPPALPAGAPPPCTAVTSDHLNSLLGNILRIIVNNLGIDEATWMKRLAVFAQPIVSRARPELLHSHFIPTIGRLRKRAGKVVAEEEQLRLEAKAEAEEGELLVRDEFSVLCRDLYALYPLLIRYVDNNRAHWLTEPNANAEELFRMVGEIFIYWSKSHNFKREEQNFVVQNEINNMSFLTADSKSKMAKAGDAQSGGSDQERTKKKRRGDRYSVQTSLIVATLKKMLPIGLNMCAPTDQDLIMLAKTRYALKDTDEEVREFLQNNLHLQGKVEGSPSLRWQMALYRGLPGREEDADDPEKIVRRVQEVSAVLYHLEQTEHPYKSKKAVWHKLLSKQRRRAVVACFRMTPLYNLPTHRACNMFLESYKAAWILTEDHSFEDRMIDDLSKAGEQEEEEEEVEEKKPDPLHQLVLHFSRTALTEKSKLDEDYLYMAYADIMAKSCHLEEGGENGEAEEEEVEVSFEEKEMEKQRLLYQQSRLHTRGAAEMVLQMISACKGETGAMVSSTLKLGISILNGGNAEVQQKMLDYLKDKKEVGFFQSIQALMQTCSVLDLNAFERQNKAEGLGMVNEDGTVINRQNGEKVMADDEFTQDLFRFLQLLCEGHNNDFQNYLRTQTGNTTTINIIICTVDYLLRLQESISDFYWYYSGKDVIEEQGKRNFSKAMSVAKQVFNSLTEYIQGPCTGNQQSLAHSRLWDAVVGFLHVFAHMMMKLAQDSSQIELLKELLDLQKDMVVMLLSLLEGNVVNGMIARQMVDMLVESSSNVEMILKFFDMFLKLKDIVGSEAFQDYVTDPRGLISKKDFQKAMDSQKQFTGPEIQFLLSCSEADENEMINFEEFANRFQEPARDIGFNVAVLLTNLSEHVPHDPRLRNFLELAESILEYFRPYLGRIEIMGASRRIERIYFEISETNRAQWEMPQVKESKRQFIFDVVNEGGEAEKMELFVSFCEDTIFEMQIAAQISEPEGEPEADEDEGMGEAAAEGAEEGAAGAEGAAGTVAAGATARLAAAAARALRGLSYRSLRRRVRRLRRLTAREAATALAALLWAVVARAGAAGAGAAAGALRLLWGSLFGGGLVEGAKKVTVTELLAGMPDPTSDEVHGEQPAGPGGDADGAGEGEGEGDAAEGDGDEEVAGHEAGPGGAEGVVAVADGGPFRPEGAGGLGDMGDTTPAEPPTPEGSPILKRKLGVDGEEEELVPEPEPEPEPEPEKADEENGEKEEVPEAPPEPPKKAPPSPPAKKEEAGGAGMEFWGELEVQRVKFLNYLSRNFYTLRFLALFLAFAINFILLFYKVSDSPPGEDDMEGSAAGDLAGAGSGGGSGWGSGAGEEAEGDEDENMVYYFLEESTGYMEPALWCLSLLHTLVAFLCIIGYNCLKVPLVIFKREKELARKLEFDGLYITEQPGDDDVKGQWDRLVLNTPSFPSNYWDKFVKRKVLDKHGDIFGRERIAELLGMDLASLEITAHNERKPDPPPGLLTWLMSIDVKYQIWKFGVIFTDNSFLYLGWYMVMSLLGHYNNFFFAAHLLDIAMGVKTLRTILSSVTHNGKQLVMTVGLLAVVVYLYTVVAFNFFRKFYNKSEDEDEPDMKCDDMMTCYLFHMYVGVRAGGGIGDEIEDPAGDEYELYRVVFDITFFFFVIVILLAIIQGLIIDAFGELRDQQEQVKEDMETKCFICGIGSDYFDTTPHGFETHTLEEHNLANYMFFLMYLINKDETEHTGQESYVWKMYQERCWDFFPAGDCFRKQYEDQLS

IC50 [1]: 14.8 ± 2.8 µM | IC50 [2]: 0.067 ± 0.008 µM
Substance: Ru360 [reference compound]
